In patent US20120269882A1, “Brain Delivery of Insulin to Treat Systemic Inflammation” (MOUNT SINAI SCHOOL OF MEDICINE Office of Technology & …, priority 2009, published 2012):
“Also recorded” adds a separate entry of the source.

Experiments:
[1] = system: LPS induced pro-inflammatory proteins in liver; experiment: Western blot of liver tissue lysates after LPS injection and ICV infusion; assay type: in vivo, mice; settings: LPS 1 mg/kg i.p., vs vehicle
Protocol: Quantification of western blot analyses from liver tissue lysates expressed as fold change to vehicle and normalized over β-actin.
Quantification of western blot analyses from liver tissue lysates expressed as fold change to vehicle and normalized over β-actin. Mice were injected with LPS (1 mg/kg, i.p.) and randomly assigned to receive ICV glucose (4 mM) or vehicle infusions for 4 hours until necropsy.

LPS-treated mice = experiment: Survival in a mouse model of sepsis (LPS 5 mg/kg, i.p.); assay type: in vivo; settings: high fat diet C57B16 mice, ICV infusion up to 5 days, vs vehicle, assessed daily
Protocol: FIG. 9: ICV insulin improves survival in a mouse model of sepsis. 4 weeks old C57B16 mice were fed high fat diet for 4 weeks and ICV cannulas were implanted. Mice were injected with LPS (5 mg/kg, ip) and randomly assigned to receive ICV insulin or vehicle infusions for up to 5 days (n=11 per group). Survival was assessed daily as depicted.
In view of the potent anti-inflammatory effects mediated by insulin when administered to the CNS, studies were undertaken to determine whether administration of insulin to the CNS would protect mice from death in a sepsis model. 4-week old C57B16 mice were fed high fat diet for 4 weeks and ICV cannulas were implanted as described above. Mice were injected with LPS (5 mg/kg, i.p.) and randomly assigned to receive ICV insulin or vehicle infusions for up to 5 days (n=11 per group). Survival was assessed daily and results were plotted, see, e.g., FIG. 9.

[2] = system: signal transducer and activator of transcription (Stat); experiment: Stat expression and phosphorylation in peripheral tissues (lung, spleen, liver) by western blot; assay type: in vivo, mice; settings: after ICV insulin infusion
Protocol: (§1) Male C57B1/6 mice were weaned at 4 weeks of age and fed a High Fat Diet (HFD) for 35 days to induce insulin resistance. After 30 days of HFD feeding, the mice underwent stereotactic surgery to implant intracerebroventricular (ICV) guide cannula (see, FIG. 2 for an illustration of cannula placement) followed by a 5-day recovery period until infusion experiments were carried out. On the day of the experiment, animals were placed in individual cages, received an intraperitoneal (i.p.) injection of E. coli (LPS) (1 mg/kg) and were continuously ICV infused using a micro infusion pump with Artificial CerebroSpinal Fluid (ACSF) or Insulin (0.005 mU/h) for 4 hours, yielding a total dose of 0.020 mU. See FIG. 1A-B for a graphical illustration of the protocol.
To investigate whether central insulin reduces cytokine signaling in peripheral tissues, the expression and phosphorylation of signal transducer and activator of transcription (Stat) was measured in lung (FIG. 4), spleen (FIG. 5) and liver (FIG. 6) tissue by western blot. […] Likewise, the activation of Stat3 which plays a central role in signaling of IL-6 and related cytokines was decreased in peripheral tissues after ICV insulin infusion. Lower protein levels of the pro-inflammatory cytokine IL-1β were detectable in the insulin-infused animals in liver, spleen and lung tissue. […]

[3] = system: LPS induced pro-inflammatory proteins in spleen; experiment: Western blot of spleen tissue lysates after LPS injection and ICV infusion; assay type: in vivo, mice; settings: LPS 1 mg/kg i.p., ICV infusion 4 h, vs vehicle
Protocol: (§2) FIG. 1A-B: FIG. 1A, Experimental protocol for high fat diet feeding and intracerebroventricular (ICV) cannula implantation. 4 week old male C57B1/6 mice were fed a high fat diet for 4 weeks and ICV cannulae were implanted. After 5 days recovery from surgery infusion studies were performed. FIG. 1B, Protocol for infusion studies. Mice were injected with lipopolysaccharides (LPS) (1 mg/kg, i.p.) and randomly assigned to receive ICV insulin or vehicle infusions for 4 hours until necropsy.
FIG. 4: ICV insulin treatment reduces LPS induced pro-inflammatory proteins in spleen. Quantification of Western blot analyses from spleen tissue lysates expressed as fold change to vehicle and normalized over β-actin. Activation of the transcription factors Stat1 and Stat3 is decreased. The pro-inflammatory markers IL-1β, COX2 and IKK-β are reduced in the ICV insulin infused animals. n=6 per group, *p<0.05.
as §1
To investigate whether central insulin reduces cytokine signaling in peripheral tissues, the expression and phosphorylation of signal transducer and activator of transcription (Stat) was measured in lung (FIG. 4), spleen (FIG. 5) and liver (FIG. 6) tissue by western blot. […] Likewise, the activation of Stat3 which plays a central role in signaling of IL-6 and related cytokines was decreased in peripheral tissues after ICV insulin infusion. Lower protein levels of the pro-inflammatory cytokine IL-1β were detectable in the insulin-infused animals in liver, spleen and lung tissue. Lower IL-1β levels in lung tissue has been associated with improvement of acute lung injury, which is a clinically important sequelae in sepsis.

[4] = system: LPS induced pro-inflammatory cytokine levels; experiment: Serum TNF-α and IL-6 by ELISA after LPS injection and ICV infusion; assay type: in vivo; settings: high fat diet C57B1/6 mice, LPS 1 mg/kg i.p., ICV insulin 0.02 mU/h for 4 h vs vehicle, p<0.05
Protocol: as §2
FIG. 3: ICV insulin treatment reduces LPS induced pro-inflammatory cytokine levels. Mice were injected with LPS (1mg/kg, i.p.) infused with central insulin (0.02 mU/h) or vehicle for 4 h and sacrificed. Serum concentrations of TNF-α and IL-6 were determined by ELISA. n=12-14 per group, *p<0.05.
Male C57B1/6 mice were weaned at 4 weeks of age and fed a High Fat Diet (HFD) for 35 days to induce insulin resistance. After 30 days of HFD feeding, the mice underwent stereotactic surgery to implant intracerebroventricular (ICV) guide cannula (see, FIG. 2 for an illustration of cannula placement) followed by a 5-day recovery period until infusion experiments were carried out. […]

[5] = system: LPS induced pro-inflammatory proteins in lung; experiment: Western blot of lung tissue lysates after LPS injection and ICV infusion; assay type: in vivo, mice; settings: LPS 1 mg/kg i.p., ICV infusion 4 h, vs vehicle
Protocol: as §2
FIG. 5: ICV insulin treatment reduces LPS induced pro-inflammatory proteins in lung. Quantification of Western blot analyses from lung tissue lysates expressed as fold change to vehicle and normalized over α-tubulin. Activation of the transcription factors Stat1 is decreased by central insulin. The level of the pro-inflammatory cytokine IL-1β is reduced in the ICV insulin infused animals. n=6 per group, *p<0.05.
Male C57B1/6 mice were weaned at 4 weeks of age and fed a High Fat Diet (HFD) for 35 days to induce insulin resistance. […]
To investigate whether central insulin reduces cytokine signaling in peripheral tissues, the expression and phosphorylation of signal transducer and activator of transcription (Stat) was measured in lung (FIG. 4), spleen (FIG. 5) and liver (FIG. 6) tissue by western blot. […]

[6] = ICV insulin 4 h, normalized over β-actin

| Molecule | Activation of Stat1 in liver ([1]; ICV glucose 4 mM for 4 hours) | Activation of Stat3 in liver ([1]; ICV glucose 4 mM for 4 hours) | IKK-β levels in liver (NF-κB signaling) ([1]; ICV glucose 4 mM for 4 hours) | PDI expression in liver (marker for ER stress) ([1]; ICV glucose 4 mM for 4 hours) | Survival (LPS-treated mice) | Activation of Stat3 in peripheral tissues [2] | LPS induced phosphorylation of Stat1 ([2]; measured in lung, spleen and liver) | IL-1β protein in liver ([1]; ICV insulin 4 h) | Activation of Stat1 in liver [1, 6] | Activation of Stat3 in liver [1, 6] | COX2 protein in spleen [3] | IKK-β protein in spleen [3] | IL-1β protein in spleen [3] | Activation of Stat1 in spleen ([3]; normalized over β-actin) | Activation of Stat3 in spleen ([3]; normalized over β-actin) | Serum concentration of IL-6 [4] | Serum concentration of TNF-α [4] | IL-1β protein in lung [5] | Activation of Stat1 in lung ([5]; normalized over α-tubulin) |
| --- | --- | --- | --- | --- | --- | --- | --- | --- | --- | --- | --- | --- | --- | --- | --- | --- | --- | --- | --- |
| O=C[C@H](O)[C@@H](O)[C@H](O)[C@H](O)CO [glucose] | significantly increased | significantly increased | Higher levels | Higher levels; also recorded: elevated | – | – | – | – | – | – | – | – | – | – | – | – | – | – | – |
| insulin | – | – | – | – | significantly (p=0.0194) improved; also recorded: significantly improve the survival | decreased | marked inhibition | reduced; also recorded: Lower | decreased | decreased | reduced | reduced | reduced; also recorded: Lower | decreased | decreased | reduces | reduces | reduced; also recorded: Lower | decreased |
